In patent US20210283199A1 (priority 2020, published 2021):
Entries after “also recorded” stand apart in the source; their conditions may differ.

Assays:
Assay type in all cases: cell-based, Clostridium perfringens
agrD gene = tested on: agrD gene
[1] = tested on: C. perfringens strain 4.6
netB gene = tested on: netB gene
[2] = tested on: C. perfringens strain 4.6; remark: listed apart in the source
C. perfringens CP4.6 = tested on: C. perfringens CP4.6
[3] = tested on: perfringolysin O (pfoA) toxin secreted by C. perfringens CP4.6

## fengycin
agrD gene
  expression of agrD gene: downregulated
  lowest concentration that downregulates expression of agrD: 0.1 ppm
[1]
  cell growth (cell count, cfu/ml): did not interfere and had minimal effect on cell growth
netB gene
  expression of netB gene: downregulated
  lowest concentration that downregulates expression of netB: 0.1 ppm
[2]
  biofilm formation: inhibited the ability of the organism to form biofilm
C. perfringens CP4.6
  C. perfringens cell growth (planktonic cell count): did not interfere and had minimal effect on C. perfringens cell growth
[3]
  hemolysis activity (zone of clearing): reduced significantly; also recorded: completely inhibited
